How the values were obtained:
[1] = Absorption of SAMe salts in rats: areas under the SAMe plasmatic concentration curves (AUC); assay type: in vivo, Sprague Dawley male rats; conditions: 100 mg of active principle per kg, mean of 5 observations, extrapolated to infinity, 100 mg/kg; for AUC, intestinal administration: introduced into proximal jejunum; for AUC, oral administration: oral administration by gastric probe
Procedure: The absorption was studied on 110 Sprague Dawley male rats of weight 210 g which had fasted since the previous evening.
The products are administered in solution or in a 2% gum arabic aqueous suspension.
For each product, 5 rats are operated under ether anesthesia to allow the substance under examination to be introduced into the proximal jejunum. The wall incision is closed by ligature, and the animals sutured.
The product is administered to a further 5 animals orally by means of a gastric probe.
A blood sample is withdrawn from the caudal vein at the commencement and at 10, 20, 40, 60, 90, 120, 180 and 240 minutes after administration, and the SAMe concentration is determined on the sample by the modified method of Baldessarini and Kopin (J. Neurochem. 13: 769, 1966).
The plasmatic concentration values less the initial values are plotted against time and the areas under the time curves to infinity calculated by the trapezium and curve extrapolation method.
Areas under the SAMe plasmatic concentration curves (AUC) for rats treated intestinally and orally with the listed products at a dosage corresponding to 100 mg of active principle per kg of body weight. The values represent the mean of 5 observations.

[2] = Solubility in water and organic solvents; conditions: water

Structure (SMILES) | AUC, intestinal administration [1] [N moles · ml^-1 × min] | AUC, oral administration [1] [N moles · ml^-1 × min] | solubility [2] [µg/mL]
C[S+](CC[C@H](N)C(=O)[O-])C[C@H]1O[C@@H](n2cnc3c(N)ncnc32)[C@H](O)[C@@H]1O (some centres unmarked) [DSS, SAMe tri dioctylsulphosuccinate] | 18500 | 8000 | –
C[S+](CC[C@H](N)C(=O)[O-])C[C@H]1O[C@@H](n2cnc3c(N)ncnc32)[C@H](O)[C@@H]1O (some centres unmarked) [DBS, SAMe tri dodecylbenzenesulphonate] | 17000 | 7800 | –
CCCCCCCCCCCCCCS(=O)(=O)[O-].[Na+] | – | – | 10000
C[S+](CC[C@H](N)C(=O)[O-])C[C@H]1O[C@@H](n2cnc3c(N)ncnc32)[C@H](O)[C@@H]1O (some centres unmarked) [SAMe SO4 -PTS, SAMe disulphatep-toluenesulphonate, reference compound] | 6700 | 990 | –
C[S+](CC[C@H](N)C(=O)[O-])C[C@H]1O[C@@H](n2cnc3c(N)ncnc32)[C@H](O)[C@@H]1O (some centres unmarked) [Example S5, SAMe tri pentanesulphonate, reference compound] | 4900 | 950 | –
C[S+](CC[C@H](N)C(=O)[O-])C[C@H]1O[C@@H](n2cnc3c(N)ncnc32)[C@H](O)[C@@H]1O (some centres unmarked) [Example S6, SAMe tri hexanesulphonate, reference compound] | 6900 | 980 | –
C[S+](CC[C@H](N)C(=O)[O-])C[C@H]1O[C@@H](n2cnc3c(N)ncnc32)[C@H](O)[C@@H]1O (some centres unmarked) [Example S12, SAMe tri dodecanesulphonate] | 25500 | 9700 | –
C[S+](CC[C@H](N)C(=O)[O-])C[C@H]1O[C@@H](n2cnc3c(N)ncnc32)[C@H](O)[C@@H]1O (some centres unmarked) [Example S14, SAMe tri tetradecanesulphonate] | 26800 | 9800 | –
C[S+](CC[C@H](N)C(=O)[O-])C[C@H]1O[C@@H](n2cnc3c(N)ncnc32)[C@H](O)[C@@H]1O (some centres unmarked) [Example S012, SAMe tri laurylsulphate] | 20800 | 8900 | –
C[S+](CC[C@H](N)C(=O)[O-])C[C@H]1O[C@@H](n2cnc3c(N)ncnc32)[C@H](O)[C@@H]1O (some centres unmarked) [Example S1, SAMe tri methanesulphonate, reference compound] | 4400 | 870 | –
C[S+](CC[C@H](N)C(=O)[O-])C[C@H]1O[C@@H](n2cnc3c(N)ncnc32)[C@H](O)[C@@H]1O (some centres unmarked) [Example S16, SAMe tri hexadecanesulphonate] | 25300 | 9600 | –
C[S+](CC[C@H](N)C(=O)[O-])C[C@H]1O[C@@H](n2cnc3c(N)ncnc32)[C@H](O)[C@@H]1O (some centres unmarked) [Example S18, SAMe tri octadecanesulphonate] | 24100 | 9400 | –
